# Experimental data taken from ChEMBL document CHEMBL5614417, “Discovery of AMPs from random peptides via deep learning-based model and biological activity validation” (Eur J Med Chem, 2024).
# Calls of active or inactive are those of the source. The rule behind the calls is not given here. Where a SMILES comes first, the peptide text is derived from it.
# What was measured:
# Staphylococcus aureus [1] = assay: Induction of resistance development against Staphylococcus aureus assessed as fold increase in MIC after 21 passages; format: functional
# Escherichia coli [2] = assay: Antibacterial activity against ESBL Escherichia coli 3 incubated for 18 hrs by visual inspection method; format: functional
# Cell membrane [3] = assay: Induction of cell membrane damage in Staphylococcus aureus at 4 times MIC incubated for 30 mins by PI staining based confocal laser scanning microscopic analysis; format: cell membranes
# Cell membrane [4] = assay: Induction of cell membrane damage in Staphylococcus aureus assessed as change in morphology by measuring deformed membrane at 4 times MIC incubated for 5 hrs by SEM analysis; format: cell membranes
# Escherichia coli [5] = assay: Antibacterial activity against Escherichia coli ATCC 25922 incubated for 18 hrs in presence of 50 mM NaCl by visual inspection method; format: functional
# Bacillus subtilis = assay: Antibacterial activity against Bacillus subtilis ATCC 23857 incubated for 18 hrs by visual inspection method; format: functional
# Cell membrane [6] = assay: Induction of cell membrane damage in Staphylococcus aureus assessed as change in morphology by measuring numerous blebs covered membrane at 4 times MIC incubated for 5 hrs by SEM analysis; format: cell membranes
# Acinetobacter baumannii [7] = assay: Antibacterial activity against multidrug resistant Acinetobacter baumannii 4 incubated for 18 hrs by visual inspection method; format: functional
# Escherichia coli [8] = assay: Antibacterial activity against Escherichia coli ATCC 25922 incubated for 18 hrs in presence of 150 mM NaCl by visual inspection method; format: functional
# Escherichia coli [9] = assay: Antibacterial activity against ESBL Escherichia coli 4 incubated for 18 hrs by visual inspection method; format: functional
# Staphylococcus aureus [10] = assay: Antibacterial activity against methicillin resistant Staphylococcus aureus 2 incubated for 18 hrs by visual inspection method; format: functional
# Acinetobacter baumannii [11] = assay: Antibacterial activity against multidrug resistant Acinetobacter baumannii 5 incubated for 18 hrs by visual inspection method; format: functional
# Acinetobacter baumannii [12] = assay: Antibacterial activity against multidrug resistant Acinetobacter baumannii 3 incubated for 18 hrs by visual inspection method; format: functional
# Klebsiella pneumoniae = assay: Antibacterial activity against Klebsiella pneumoniae ATCC 700603 incubated for 18 hrs by visual inspection method; format: functional
# Staphylococcus aureus [13] = assay: Antibacterial activity against Staphylococcus aureus ATCC 25923 incubated for 18 hrs by visual inspection method; format: functional
# Cell membrane [14] = assay: Disruption of outer membrane integrity in Escherichia coli assessed as increase in fluorescence intensity by measuring NPN uptake measured every min for 15 mins by fluorescence based analysis; format: cell membranes
# Cell membrane [15] = assay: Disruption of outer membrane integrity in Escherichia coli assessed as increase in fluorescence intensity by measuring NPN uptake at 1 to 4 times MIC by fluorescence based analysis; format: cell membranes; details: TDE = time-dependent effect
# Staphylococcus aureus [16] = assay: Antibacterial activity against Staphylococcus aureus ATCC 25923 incubated for 18 hrs in presence of 100 mM NaCl by visual inspection method; format: functional
# Cell membrane [17] = assay: Induction of cell membrane damage in Staphylococcus aureus assessed as change in morphology by measuring roughened membrane at 4 times MIC incubated for 5 hrs by SEM analysis; format: cell membranes
# Escherichia coli [18] = assay: Antibacterial activity against ESBL Escherichia coli 1 incubated for 18 hrs by visual inspection method; format: functional
# Staphylococcus aureus [19] = assay: Antibacterial activity against Staphylococcus aureus ATCC 25923 incubated for 18 hrs in presence of 50 mM NaCl by visual inspection method; format: functional
# Acinetobacter baumannii [20] = assay: Antibacterial activity against multidrug resistant Acinetobacter baumannii 2 incubated for 18 hrs by visual inspection method; format: functional
# Cell membrane [21] = assay: Induction of cell membrane damage in Escherichia coli assessed as change in morphology by measuring roughened membrane at 4 times MIC incubated for 5 hrs by SEM analysis; format: cell membranes
# Escherichia coli [22] = assay: Antibacterial activity against ESBL Escherichia coli 2 incubated for 18 hrs by visual inspection method; format: functional
# Cell membrane [23] = assay: Induction of inner membrane permeability in Escherichia coli ML-35 measured every 5 mins for 90 mins by ONPG dye based assay; format: cell membranes
# Escherichia coli [24] = assay: Antibacterial activity against ESBL Escherichia coli 5 incubated for 18 hrs by visual inspection method; format: functional
# Escherichia coli [25] = assay: Antibacterial activity against Escherichia coli ATCC 25922 incubated for 18 hrs by visual inspection method; format: functional
# Acinetobacter baumannii [26] = assay: Antibacterial activity against multidrug resistant Acinetobacter baumannii 1 incubated for 18 hrs by visual inspection method; format: functional
# Acinetobacter baumannii [27] = assay: Antibacterial activity against Acinetobacter baumannii ATCC 19606 incubated for 18 hrs by visual inspection method; format: functional
# Erythrocyte [28] = assay: Hemolytic activity in rat erythrocytes at 500 to 1000 ug/ml incubated for 1 hr; format: toxicity, cell-based; details: dose 500-1000 µg/ml
# Erythrocyte [29] = assay: Hemolytic activity in rat erythrocytes incubated for 1 hr; format: toxicity, cell-based
# Cell membrane [30] = assay: Induction of cell membrane damage in Escherichia coli at 4 times MIC incubated for 30 mins by PI staining based confocal laser scanning microscopic analysis; format: cell membranes
# [31] = Stability in Sprague-Dawley rat serum at 62.5 ug/ml measured upto 480 mins by RP-HPLC method; format: ADME, cell-free; details: 8 h, at 62.5 µg/mL
# Erythrocyte [32] = assay: Hemolytic activity in rat erythrocytes at 250 ug/ml incubated for 1 hr; format: toxicity, cell-based; details: dose 250 µg/ml
# Staphylococcus aureus [33] = assay: Antibacterial activity against methicillin resistant Staphylococcus aureus 1 incubated for 18 hrs by visual inspection method; format: functional
# Cell membrane [34] = assay: Induction of cell membrane damage in Escherichia coli assessed as change in morphology by measuring deformed membrane at 4 times MIC incubated for 5 hrs by SEM analysis; format: cell membranes
# Cell membrane [35] = assay: Induction of inner membrane permeability in Escherichia coli ML-35 at 1 to 4 times MIC by ONPG dye based assay; format: cell membranes; details: TDE = time-dependent effect
# Cell membrane [36] = assay: Induction of cell membrane damage in Staphylococcus aureus assessed as decrease in red/green fluorescence ratio by DiOC2(3) fluorescent probe based assay; format: cell membranes
# Staphylococcus aureus [37] = assay: Antibacterial activity against Staphylococcus aureus ATCC 25923 incubated for 18 hrs in presence of 150 mM NaCl by visual inspection method; format: functional
# Staphylococcus aureus [38] = assay: Antibacterial activity against methicillin resistant Staphylococcus aureus 4 incubated for 18 hrs by visual inspection method; format: functional
# [39] = system: Staphylococcus epidermidis; assay: Antibacterial activity against Staphylococcus epidermidis ATCC 12228 incubated for 18 hrs by visual inspection method; format: functional
# Cell membrane [40] = assay: Induction of cell membrane damage in Staphylococcus aureus assessed as decrease in red/green fluorescence ratio at 2 times MIC by DiOC2(3) fluorescent probe based assay; format: cell membranes
# Escherichia coli [41] = assay: Antibacterial activity against Escherichia coli ATCC 25922 incubated for 18 hrs in presence of 100 mM NaCl by visual inspection method; format: functional
# Cell membrane [42] = assay: Induction of cell membrane damage in Escherichia coli assessed as change in morphology by measuring numerous blebs covered membrane at 4 times MIC incubated for 5 hrs by SEM analysis; format: cell membranes
# Staphylococcus aureus [43] = assay: Antibacterial activity against methicillin resistant Staphylococcus aureus 3 incubated for 18 hrs by visual inspection method; format: functional
# [44] = Hemolytic activity in rat erythrocytes at 1000 ug/ml incubated for 1 hr; format: toxicity, cell-based, Erythrocyte; details: at 1000 µg/mL, read-out: Activity
# Staphylococcus aureus [45] = assay: Antibacterial activity against Staphylococcus aureus infected in BALB/c mouse at 10 mg/kg administered every 4 hrs for 3 doses and measured after 4 hrs post last dose; format: functional, organism-based; details: time 16.0 hrs
compound,measurement,setting,value
O=C(O)c1cn(C2CC2)c2cc(N3CCNCC3)c(F)cc2c1=O,fold change (FC),Staphylococcus aureus [1],16
CC[C@H](C)[C@H](NC(=O)[C@@H](N)CCCNC(=N)N)C(=O)NCC(=O)N[C@@H](Cc1c[nH]c2ccccc12)C(=O)N[C@@H](CS)C(=O)N[C@@H](C)C(=O)N[C@@H](Cc1c[nH]c2ccccc12)C(=O)N[C@@H](CC(C)C)C(=O)N[C@@H](CC(C)C)C(=O)N[C@@H](CCCCN)C(=O)N[C@@H](CC(N)=O)C(=O)N[C@@H](CCCCN)C(=O)N[C@@H](C)C(N)=O (H-RIGWCAWLLKNKA-NH2),MIC,Escherichia coli [2],30 µg/mL
same,Activity,Cell membrane [3],Active
same,Activity,Cell membrane [4],Active
same,MIC,Escherichia coli [5],30 µg/mL
same,MIC,Bacillus subtilis,15 µg/mL
same,Activity,Cell membrane [6],Active
same,MIC,Acinetobacter baumannii [7],15 µg/mL
same,MIC,Escherichia coli [8],30 µg/mL
same,MIC,Escherichia coli [9],30 µg/mL
same,MIC,Staphylococcus aureus [10],60 µg/mL
same,MIC,Acinetobacter baumannii [11],15 µg/mL
same,MIC,Acinetobacter baumannii [12],15 µg/mL
same,MIC,Klebsiella pneumoniae,60 µg/mL
same,MIC,Staphylococcus aureus [13],60 µg/mL
same,Activity,Cell membrane [14],Dose-Dependent Effect
same,Activity,Cell membrane [15],Tde
same,MIC,Staphylococcus aureus [16],60 µg/mL
same,Activity,Cell membrane [17],Active
same,MIC,Escherichia coli [18],30 µg/mL
same,MIC,Staphylococcus aureus [19],60 µg/mL
same,MIC,Acinetobacter baumannii [20],15 µg/mL
same,Activity,Cell membrane [21],Active
same,MIC,Escherichia coli [22],30 µg/mL
same,Activity,Cell membrane [23],Dose-Dependent Effect
same,MIC,Escherichia coli [24],30 µg/mL
same,MIC,Escherichia coli [25],30 µg/mL
same,MIC,Acinetobacter baumannii [26],15 µg/mL
same,MIC,Acinetobacter baumannii [27],15 µg/mL
same,Activity,Erythrocyte [28],Toxic
same,HC5,Erythrocyte [29],779.41 µg/mL
same,Activity,Cell membrane [30],Active
same,Stability,[31],Unstable
same,Activity,Erythrocyte [32],Non-Toxic
same,MIC,Staphylococcus aureus [33],60 µg/mL
same,Activity,Cell membrane [34],Active
same,Activity,Cell membrane [35],Tde
same,Activity,Cell membrane [36],Dose-Dependent Effect
same,MIC,Staphylococcus aureus [37],60 µg/mL
same,MIC,Staphylococcus aureus [38],60 µg/mL
same,MIC,[39],15 µg/mL
same,Activity,Cell membrane [40],Active
same,MIC,Escherichia coli [41],30 µg/mL
same,Activity,Cell membrane [42],Active
same,MIC,Staphylococcus aureus [43],60 µg/mL
same,"hemolysis at 1 h, 1000 ug/ml",[44],8.18%
CC[C@H](C)[C@H](NC(=O)[C@H](Cc1c[nH]c2ccccc12)NC(=O)CNC(=O)[C@H](CCC(N)=O)NC(=O)[C@@H](N)CCCNC(=N)N)C(=O)N[C@@H](Cc1c[nH]c2ccccc12)C(=O)N[C@@H](Cc1ccc(O)cc1)C(=O)NCC(=O)N[C@@H](Cc1ccccc1)C(=O)N[C@@H](Cc1ccccc1)C(=O)N[C@@H](Cc1c[nH]c2ccccc12)C(=O)N[C@@H](CCCCN)C(=O)N[C@@H](CCCCN)C(N)=O (H-RQGWIWYGFFWKK-NH2),MIC,Escherichia coli [2],30 µg/mL
same,Activity,Cell membrane [3],Active
same,Activity,Cell membrane [4],Active
same,MIC,Escherichia coli [5],30 µg/mL
same,MIC,Bacillus subtilis,7.5 µg/mL
same,Activity,Cell membrane [6],Active
same,MIC,Acinetobacter baumannii [7],15 µg/mL
same,MIC,Escherichia coli [8],30 µg/mL
same,MIC,Escherichia coli [9],30 µg/mL
same,MIC,Staphylococcus aureus [10],7.5 µg/mL
same,MIC,Acinetobacter baumannii [11],15 µg/mL
same,MIC,Acinetobacter baumannii [12],15 µg/mL
same,MIC,Klebsiella pneumoniae,60 µg/mL
same,MIC,Staphylococcus aureus [13],7.5 µg/mL
same,Activity,Cell membrane [14],Dose-Dependent Effect
same,Activity,Cell membrane [15],Tde
same,MIC,Staphylococcus aureus [16],7.5 µg/mL
same,Activity,Cell membrane [17],Active
same,MIC,Escherichia coli [18],30 µg/mL
same,MIC,Staphylococcus aureus [19],7.5 µg/mL
same,MIC,Acinetobacter baumannii [20],15 µg/mL
same,Activity,Cell membrane [21],Active
same,MIC,Escherichia coli [22],30 µg/mL
same,Activity,Cell membrane [23],Dose-Dependent Effect
same,MIC,Escherichia coli [24],30 µg/mL
same,MIC,Escherichia coli [25],30 µg/mL
same,MIC,Acinetobacter baumannii [26],15 µg/mL
same,MIC,Acinetobacter baumannii [27],15 µg/mL
same,Activity,Erythrocyte [28],Toxic
same,HC5,Erythrocyte [29],560.73 µg/mL
same,Activity,Cell membrane [30],Active
same,Activity,Erythrocyte [32],Non-Toxic
same,MIC,Staphylococcus aureus [33],7.5 µg/mL
same,Activity,Cell membrane [34],Active
same,Activity,Cell membrane [35],Tde
same,Activity,Cell membrane [36],Dose-Dependent Effect
same,MIC,Staphylococcus aureus [37],7.5 µg/mL
same,MIC,Staphylococcus aureus [38],7.5 µg/mL
same,MIC,[39],3.75 µg/mL
same,Activity,Cell membrane [40],Active
same,MIC,Escherichia coli [41],30 µg/mL
same,Activity,Cell membrane [42],Active
same,MIC,Staphylococcus aureus [43],7.5 µg/mL
same,"hemolysis at 1 h, 1000 ug/ml",[44],7.47%
CN[C@H](CC(C)C)C(=O)N[C@H]1C(=O)N[C@@H](CC(N)=O)C(=O)N[C@H]2C(=O)N[C@H]3C(=O)N[C@H](C(=O)N[C@H](C(=O)O)c4cc(O)cc(O)c4-c4cc3ccc4O)[C@H](O)c3ccc(c(Cl)c3)Oc3cc2cc(c3O[C@@H]2O[C@H](CO)[C@@H](O)[C@H](O)[C@H]2O[C@H]2C[C@](C)(N)[C@H](O)[C@H](C)O2)Oc2ccc(cc2Cl)[C@H]1O [VANCOMYCIN],MIC,Bacillus subtilis,0.94 µg/mL
same,MIC,Staphylococcus aureus [10],0.94 µg/mL
same,MIC,Staphylococcus aureus [13],0.94 µg/mL
same,Activity,Staphylococcus aureus [45],Active
same,MIC,Staphylococcus aureus [33],0.94 µg/mL
same,MIC,Staphylococcus aureus [38],0.94 µg/mL
same,MIC,[39],0.94 µg/mL
same,MIC,Staphylococcus aureus [43],0.94 µg/mL
